These results are taken from publication PMC10254045, “Elaboration of the Effective Multi-Target Therapeutic Platform for the Treatment of Alzheimer’s Disease Based on Novel Monoterpene-Derived Hydroxamic Acids” (International Journal of Molecular Sciences, 2023).

The target in one series is T1, HDAC6 (Homo sapiens, UniProt Q9UBN7).
T1 construct: purchased Enzo Life Sciences
T1 sequence (Q9UBN7 1-1215): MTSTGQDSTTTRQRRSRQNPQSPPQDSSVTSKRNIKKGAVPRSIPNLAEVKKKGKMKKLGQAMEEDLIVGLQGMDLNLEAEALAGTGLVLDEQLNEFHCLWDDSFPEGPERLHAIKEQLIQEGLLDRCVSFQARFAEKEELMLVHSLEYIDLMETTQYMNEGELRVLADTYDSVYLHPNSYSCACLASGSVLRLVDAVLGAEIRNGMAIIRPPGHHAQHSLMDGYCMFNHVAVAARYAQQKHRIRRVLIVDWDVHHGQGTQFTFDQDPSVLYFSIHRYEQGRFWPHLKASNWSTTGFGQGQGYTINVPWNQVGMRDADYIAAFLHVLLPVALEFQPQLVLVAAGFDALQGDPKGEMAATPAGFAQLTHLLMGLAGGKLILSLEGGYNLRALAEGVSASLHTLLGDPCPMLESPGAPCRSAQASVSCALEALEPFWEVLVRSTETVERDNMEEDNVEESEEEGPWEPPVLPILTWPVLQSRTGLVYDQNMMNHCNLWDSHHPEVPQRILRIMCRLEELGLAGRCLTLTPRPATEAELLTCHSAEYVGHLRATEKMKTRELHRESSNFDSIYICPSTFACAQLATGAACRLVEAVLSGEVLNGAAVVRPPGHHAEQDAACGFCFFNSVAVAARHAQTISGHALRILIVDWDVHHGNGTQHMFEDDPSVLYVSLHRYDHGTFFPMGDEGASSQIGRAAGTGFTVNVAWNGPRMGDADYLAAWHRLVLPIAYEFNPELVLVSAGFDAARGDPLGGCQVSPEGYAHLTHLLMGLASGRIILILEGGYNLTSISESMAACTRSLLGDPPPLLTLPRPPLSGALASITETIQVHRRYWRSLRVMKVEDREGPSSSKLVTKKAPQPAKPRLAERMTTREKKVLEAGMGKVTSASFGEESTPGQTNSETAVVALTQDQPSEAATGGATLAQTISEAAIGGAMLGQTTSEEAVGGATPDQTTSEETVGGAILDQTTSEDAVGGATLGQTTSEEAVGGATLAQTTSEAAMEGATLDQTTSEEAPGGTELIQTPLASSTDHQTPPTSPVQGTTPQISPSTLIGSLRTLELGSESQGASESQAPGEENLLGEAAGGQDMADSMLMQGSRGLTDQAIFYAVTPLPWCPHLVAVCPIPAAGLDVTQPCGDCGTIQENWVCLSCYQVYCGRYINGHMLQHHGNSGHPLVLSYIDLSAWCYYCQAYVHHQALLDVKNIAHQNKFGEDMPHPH
In words: Fluorimetric measurement of HDAC6 activity (FLUOR DE LYS kit). The series is classed as biochemical.

Another series can be described thus: Cell viability, MTT test. The class given is cell-based. Particulars: human, SH-SY5Y neuroblastoma cells, 24-h exposure, read-out: IC50 cytotoxic action. As for the experimental part: The culture of human neuroblastoma cells (defined as SH-SY5Y) was cultured in DMEM with the addition of embryonic bovine serum (10%), 2 mM glutamine (DiaM, Moscow, Russia) and penicillin-streptomycin (100 U/Ml–100 µg/mL, PanEco, Moscow, Russia) in conditions of 5% CO2 in the air at 37 °C. Upon reaching 80% confluence, cells in the amount of 1 × 10^4 were placed in 96-well transparent plates and incubated under the same conditions for 24 h. After the incubation time, the cells were exposed to a 24-h exposure to various concentrations of hydroxamic acids dissolved in dimethyl sulfoxide (range from 1 to 100 µM). An equivalent volume of solvent was used as a control (final DMSO content = 1%).
Cell survival analysis was performed using MTT test. To do this, 3-(4,5-dimethylthiazol-2-yl)-2,5-diphenyltetrazolium bromide (MTT, 5 mg/mL, DiaM, Moscow, Russia) was introduced into all wells and incubated at 37 °C for 2 h to restore metabolically active cells of the yellow tetrazolium salt MTT to purple formazane crystals. The resulting formazane was then re-suspended in 200 µL DMSO per well. The optical density was recorded using a multifunctional Cytation™3 flatbed analyzer (BioTek Instruments, Inc., Winooski, VT, USA) at λ = 530 nm.
On the technique in general: Tetrazolium dyes change colour on reduction, which living cells bring about.

Series [1] is described as follows: Oxygen radical absorbance capacity (ORAC). Particulars: Trolox equivalent; compounds and Trolox 100 µM, AAPH 12 mM. The source says: (§1) DPPH is a stable chromogen radical, which is widely used to assess the antioxidant activity of biological objects, in particular when searching for potential therapeutic agents used to maintain the redox balance in the body and treat pathologies associated with the action of free radicals. In turn, the oxygen radical absorbance capacity (ORAC) analysis is based on the removal by potential antioxidants of peroxyl radicals generated by AAPH (2,2’-axobis-2-methyl-propanimidamide, dihydrochloride), preventing the degradation of the fluorescein probe.
The analysis of the absorption capacity of oxygen radicals was performed as described in [151], with some modifications. Trolox (Sigma Aldrich, St. Louis, MI, USA) was used as a standard antioxidant. The studied compounds were introduced into the holes of a 96-hole black tablet with a transparent bottom with Trolox (25 µL; the final concentration was 100 µM) and fluorescein (150 µL; the final concentration was 80 nM, Sigma Aldrich, St. Louis, MI, USA). The resulting mixture was shaken and incubated for 30 min at 37 °C. After a 30-min incubation period, a solution of 2,2’-azobis (2-amidinopropane) dihydrochloride (AAPH) (25 µL; final concentration of 12 mM, Sigma Aldrich, St. Louis, MI, USA) was quickly introduced into all wells of the tablet. The tablet was immediately placed in a multifunctional tablet analyzer Cytation™ 3 (BioTek Instruments, Inc., Winooski, VT, USA). The fluorescence intensity was recorded for 300 min at λex = 480 nm, λem = 520 nm with an interval of every 5 min. In the same experiment, calibration solutions for the reference antioxidant Trolox were used to confirm the validity of the use of this method (0, 6.25, 12.5, 25, 50 and 100 µM).

For series [2], the target named is T2, β-amyloid peptide 1-42 (Aβ1-42) (Homo sapiens, UniProt P05067).
T2 construct: the pathological form of β-amyloid peptide 1-42 (Sigma Aldrich); purchased Sigma Aldrich
Briefly: Thioflavin T fluorescent analysis of Aβ1-42 aggregation. The class given is biochemical. As to conditions: 48 h, compounds 100 µM, Thioflavin T 10 µM, 48 h registration; read-out: prevention of the aggregation of Aβ1-42. The source says: The aggregation process of β-amyloid peptide 1-42 (Aβ1-42), caused by hydrophobic interactions of peptide monomers and, as a consequence, the formation of the most toxic polymorphic structure-oligomeric fragments of Aβ, was detected using the fluorescent dye Thioflavin T (Figure 4a). This method is the most widely used for selective staining and the identification of amyloid aggregates, which is confirmed by a large number of works. Fluorescence analysis using Thioflavin T made it possible to monitor the aggregation process of the pathological form of β-amyloid peptide 1-42 (Sigma Aldrich, St. Louis, MI, USA). The experimental protocol was carried out similarly to that described in [58] with some modifications. The registration of changes in the fluorescence of thioflavin T (10 µM, Sigma Aldrich, St. Louis, MI, USA) was performed on a multifunctional tablet analyzer Cytation™3 (BioTek Instruments, Inc., Winooski, VT, USA) at λex = 450 nm, λem = 480 nm. The fluorescence intensity of the solution without Aβ1-42 was subtracted from the fluorescence values of solutions containing protein, due to the need to subtract the background fluorescence.

The nature of series [3]: DPPH radical scavenging activity. As to conditions: Trolox equivalent; compounds and Trolox 100 µM.
From the text: as §1
The measurement of the antiradical activity of synthesized hydroxamic acids was carried out using the method described in [150]. The studied compounds were introduced into the wells of a 96-well black tablet (the final concentration was 100 microns), after which a freshly prepared solution of 2,2-diphenyl-1-picrylhydrazyl (Sigma Aldrich, St. Louis, Missouri, USA) was added. After the incubation time had elapsed, the DPPH radical-scavenging activity was measured using a multifunctional Cytation™3 tablet analyzer (BioTek Instruments, Inc., Winooski, VT, USA) at λ = 517 nm by the difference in the reduction of the DPPH radical peak between control samples containing an equivalent volume of solvent and samples with the substances under study.
In general terms: The DPPH test is a chemical assay of radical scavenging.

Setting [4] is: Table 1, read-out: HDAC6-Inhibitory Effect, IC50.
Where [5] appears, read: HDAC6, values as listed in Table S1 beside docking score, read-out: IC50.

Like-named read-outs stand apart in the source and are kept apart here.

T2 sequence (P05067 672-713 limits assumed): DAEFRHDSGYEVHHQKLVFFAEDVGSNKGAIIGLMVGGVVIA

For orientation: IC50 means the point on the concentration scale where inhibition reaches its midpoint. As usually defined, the melting point is the temperature of the solid-liquid transition. Consider `CC1(C)[C@H]2CC[C@@H](CNC(=O)/C=C/c3ccc(C(=O)NO)cc3)[C@@H]1C2` [Compound 35c, 4-((E)-3-((((1S,2R,5S)-6,6-dimethylbicyclo[3.1.1]heptan-2-yl)methyl)amino)-3-oxoprop-1-en-1-yl)-N-hydroxybenzamide], for which the melting point lay within 139.5 to 141.4 °C. In addition, the IC50 on HDAC6 (setting [4]) was 6.9 ± 0.43 µM. In addition, the IC50 at 24 h in the series “Cell viability, MTT test” was found to be 86.7 ± 1.45 µM. Also, the “ORAC value (TE)” value in series [1] came out at 1.02 TE. Moreover, the inhibition at 100 µM in series [2] is at most 40%. Also, the “DPPH value (TE)” value in series [3] turned out to be 0.71 TE.

`C=C(C)[C@@H]1CC=C(CNC(=O)c2ccc(/C=C/C(=O)NO)cc2)CC1` [Compound 38a, (S,E)-4-(3-(hydroxyamino)-3-oxoprop-1-en-1-yl)-N-((4-(prop-1-en-2-yl)cyclohex-1-en-1-yl)methyl)benzamide] had a melting point of 167.2 to 167.6 °C. Besides, the IC50 on HDAC6 (setting [5]) was 7.74 µM. The IC50 at 24 h in “Cell viability, MTT test” was above 100 µM. The “ORAC value (TE)” value in series [1] was determined as 1.00 TE. Besides, the inhibition at 100 µM in series [2] came to 60.1%. Also, in series [3], the “DPPH value (TE)” value stood at 0.66 TE.

Consider `CC(C)c1ccc(CNC(=O)c2ccc(/C=C/C(=O)NO)cc2)cc1` [Compound 38b, (E)-4-(3-(hydroxyamino)-3-oxoprop-1-en-1-yl)-N-(4-isopropylbenzyl)benzamide], for which the melting point lay in the range of 160.3 to 164.9 °C. Further, the IC50 at HDAC6 (setting [4]) came out at 4.78 ± 0.04 µM. Besides, the IC50 at 24 h in “Cell viability, MTT test” is above 100 µM. In series [1], the “ORAC value (TE)” value stood at 1.04 TE. Also, in series [2], the inhibition at 100 µM was determined as 63.9%. Besides, the “DPPH value (TE)” value in series [3] is 0.79 TE.

For the compound `CC1(C)[C@H]2CC[C@@H](CNC(=O)c3ccc(/C=C/C(=O)NO)cc3)[C@@H]1C2` [Compound 38c, N-(((1S,2R,5S)-6,6-dimethylbicyclo[3.1.1]heptan-2-yl)methyl)-4-((E)-3-(hydroxyamino)-3-oxoprop-1-en-1-yl)benzamide], the melting point was 108.6 °C. The IC50 at HDAC6 (setting [5]) is 8.03 µM. Also, in “Cell viability, MTT test”, the IC50 at 24 h amounted to 90.5 ± 2.9 µM. In addition, the “ORAC value (TE)” value in series [1] amounted to 1.02 TE. Also, the inhibition at 100 µM in series [2] is at most 40%. In addition, in series [3], the “DPPH value (TE)” value is listed as 0.70 TE.
